Earlier results in patent publication US20240066056A1, “Formulations of a Prophylactic Nasal Spray and Methods of Use and Manufacture Thereof” (priority 2020, published 2024).

Columns and labels:
SARS-CoV-2 = conditions: within 30 seconds of contact
bacteria = conditions: after an application of povidone-iodine
[1] = cold and mild-warm water and alcohol

Substance: Povidone-iodine [PVP-I]
- virus killed (in vitro virucidal activity) (SARS-CoV-2): 99.99%
- duration of bactericidal action after application (bacteria): up to eight
- solubility [1]: soluble in cold and mild-warm water and alcohol
